Source: patent US11730723B2, “Compounds and methods for treating viral infections” (priority 2020, dated 2023)
Several values for one entry are separate records, joined by “and”; a condition that tells them apart may be missing. Equal entries are not always repeated. Where two headings read alike, the source gives them in different places.

Experiments:
[1] = test system: dengue virus (DENV) serotype 2 strain D2S221; experiment: Dengue virus D2S221 inhibition assay in Vero cells (immunostaining); conditions: read-out: D2S221 IC50
[2] = test system: alpha coronavirus 229E (CoV-229E); experiment: CoV-229E virus-induced CPE inhibition in MRC-5 cells (XTT); conditions: 6 days
HCoV-OC43 [3] = experiment: HCoV-OC43 CPE assay in Huh-7 cells (neutral red uptake, 6 days); assay type: cell-based, human coronavirus (HCoV) OC43 strain; conditions: for Raw OD-Absorbance 490 nm: infected Huh-7, neutral red uptake, individual replicates
H292 cells (NCI-H292) = experiment: Cytotoxicity in uninfected H292 cells (MTT); conditions: CC50, uninfected H292 cells
[4] = test system: HBV wild-type strain ayw1; experiment: Primary anti-HBV assay in HepG2 2.2.15 cells (qPCR of HBV DNA); conditions: Hepatitis B virus, HepG2 2.2.15, 144 h
[5] = Cytotoxicity in HepG2 2.2.15 cells (MTS); assay type: cell-based; conditions: human, same assay plate
Huh-7 cells = experiment: Cytotoxicity / viability of uninfected Huh-7 cells (XTT, 6 days); conditions: for Viability (A490): control; for Viability of Huh-7 Cells (A490): raw absorbance 490 nm
[6] = test system: SARS-CoV-2 (USA-WA1/2020); experiment: microbe, parasite or virus in culture; conditions: Severe acute respiratory syndrome coronavirus 2, Vero C1008, 48 h, read-out: Live SARS-CoV-2 Antiviral Assay IC50
Vero E6 cells = conditions: for viability of Vero E6 cells (percent of vehicle alone): 2-day treatment, mean ± SD of duplicates
in vitro = conditions: African green monkey
[7] = test system: SARS-CoV-2 (USA-WA1/2020); conditions: Compound 1 at 25 μM; HCQ at 5 μM; remdesivir 10 μM
MRC-5 cells = experiment: Cell viability of uninfected drug control MRC-5 cells (XTT), TC50; conditions: read-out: TC50, uninfected MRC-5 cells, 6 days
[8] = Cytotoxicity on Huh7 cells (CellTiter Glo); conditions: human
HCoV OC43 = HCoV OC43 CPE assay in Huh7 cells (CellTiter Glo); assay type: cell-based, human coronavirus (HCoV) OC43; conditions: Betacoronavirus 1, OC43, Huh-7, read-out: HCoV OC43 CPE Assay EC50
[9] = Cytotoxicity on MRC-5 cells (CellTiter Glo); conditions: human
HCoV 229E = HCoV 229E CPE assay in MRC-5 cells (CellTiter Glo); assay type: cell-based, human coronavirus (HCoV) 229E; conditions: unidentified human coronavirus, MRC5, read-out: HCoV 229E CPE assay EC50
HCoV-OC43 [10] = experiment: HCoV-OC43 efficacy in H292 cells (MTT, 6 days); assay type: cell-based, HCoV-OC43 (Betacoronavirus 1); conditions: Betacoronavirus 1, OC43, NCI-H292, read-out: Efficacy

CCN(CC)CCCC(C)Nc1ccnc2cc(Cl)ccc12 (stereo not drawn) [Chloroquine diphosphate]
IC50 [1]: 23700 nM

CCN(CC)CCCC(C)Nc1ccnc2cc(Cl)ccc12 (stereo not drawn) [Chloroquine]
EC50 [2]: 490 nM | Inhibition of OC43 Virus-Induced CPE in Huh-7 Cells (HCoV-OC43 [3]; CQ 5 μM, relative to uninfected cells (mock), listed as CQ): 87.8% | Raw OD-Absorbance 490 nm (HCoV-OC43 [3]; CQ 5 μM, listed as CQ): 0.693 and 0.689 | Cytotoxicity (H292 cells (NCI-H292)): 46.04 µM

Nc1ccn([C@@H]2CS[C@H](CO)O2)c(=O)n1 [Compound 3TC, Lamivudine]
EC50 [4]: 28.3 nM | EC90 [4]: > 2000 nM | CC50 [5]: > 2000 nM

CC[C@H]1CN2CCc3cc(OC)c(OC)cc3[C@@H]2C[C@@H]1C[C@H]1NCCc2cc(OC)c(OC)cc21 [Emetine]
Viability (A490) (Huh-7 cells; 1 μM, percentage viability vs medium only): 18.3 ± 0.3% | Viability (A490) (Huh-7 cells; 1 μM, raw absorbance, individual replicates): 0.176 and 0.179 | Viability (A490) (Huh-7 cells; 5 μM, percentage viability vs medium only): 8.2 ± 0.7% | Viability (A490) (Huh-7 cells; 5 μM, raw absorbance, individual replicates): 0.104 and 0.111 | cell viability blocked / inhibited (Huh-7 cells; cytotoxic control, XTT, tested at 5 μM): more than 90%

C=C1[C@H](CO)[C@@H](O)C[C@@H]1n1cnc2c(=O)[nH]c(N)nc21 [Entecavir]
EC50 [4]: 0.44 nM | EC90 [4]: > 1000 nM | CC50 [5]: > 1000 nM

CCN(CCO)CCCC(C)Nc1ccnc2cc(Cl)ccc12 (stereo not drawn) [HCQ, hydroxychloroquine]
IC50 [6]: ~3000 nM | viability of Vero E6 cells (percent of vehicle alone) (Vero E6 cells; 0.16 μM): 103.9 ± 6.9% | viability of Vero E6 cells (percent of vehicle alone) (Vero E6 cells; 0.31 μM): 102.3 ± 4.6% | viability of Vero E6 cells (percent of vehicle alone) (Vero E6 cells; 0.63 μM): 103.2 ± 3.4% | viability of Vero E6 cells (percent of vehicle alone) (Vero E6 cells; 1.25 μM): 100.4 ± 0.5% | viability of Vero E6 cells (percent of vehicle alone) (Vero E6 cells; 2.5 μM): 94.4 ± 7.9% | viability of Vero E6 cells (percent of vehicle alone) (Vero E6 cells; 5 μM): 93.4 ± 6.5% | viability of Vero E6 cells (percent of vehicle alone) (Vero E6 cells; 10 μM): 93.8 ± 6.0% | viability of Vero E6 cells (in words) (Vero E6 cells; Compound 1 at concentrations lower than 25 μM, HCQ at all concentrations tested): not significantly changed | CC50 (in vitro): > 10000 nM | prevention of the SARS-CoV-2 induced CPE (in words) [7]: prevented most of the virus-induced CPE

CCC(CC)COC(=O)[C@H](C)N[P@](=O)(OC[C@H]1O[C@@](C#N)(c2ccc3c(N)ncnn23)[C@H](O)[C@@H]1O)Oc1ccccc1 [Remdesivir]
CC50 (MRC-5 cells): > 2000 nM | CC50 [8]: 6170 nM | EC50 (HCoV OC43): 20 nM | EC50 [2]: 130 nM | CC50 [9]: 27900 nM | EC50 (HCoV 229E): 20 nM | Cytotoxicity (H292 cells (NCI-H292)): >20 µM | EC50 (HCoV-OC43 [10]): 37500 nM

NC(=O)c1ncn([C@@H]2O[C@H](CO)[C@@H](O)[C@H]2O)n1 [Ribavirin]
IC50 [1]: 71100 nM

CCN(CC)CCNC(=O)c1c(C)[nH]c(/C=C2\C(=O)Nc3ccc(F)cc32)c1C [Sunitinib]
CC50 (MRC-5 cells): 1320 nM | IC50 [1]: 4060 nM | EC50 [2]: 630 nM | Cytotoxicity (H292 cells (NCI-H292)): 10 to 50 µM

Sunitinib maleate
Viability of Huh-7 Cells (A490) (Huh-7 cells; 0.01 μM, 6 days, individual replicates): 0.721 and 0.651 | Viability of Huh-7 Cells (A490) (Huh-7 cells; 0.04 μM, 6 days, individual replicates): 0.738 and 0.751 | Viability of Huh-7 Cells (A490) (Huh-7 cells; 0.12 μM, 6 days, individual replicates): 0.719 and 0.752 | Viability of Huh-7 Cells (A490) (Huh-7 cells; 0.37 μM, 6 days, individual replicates): 0.732 and 0.765 | Viability of Huh-7 Cells (A490) (Huh-7 cells; 1.1 μM, 6 days, individual replicates): 0.676 and 0.665 | Viability of Huh-7 Cells (A490) (Huh-7 cells; 3.3 μM, 6 days, individual replicates): 0.642 and 0.601 | Viability of Huh-7 Cells (A490) (Huh-7 cells; 10 μM, 6 days, individual replicates): 0.543 and 0.554 | Viability of Huh-7 Cells (A490) (Huh-7 cells; 30 μM, 6 days, individual replicates): 0.058 and 0.055 | Viability of Huh-7 Cells (A490) (Huh-7 cells; 90 μM, 6 days, individual replicates): 0.053 and 0.054 | CC50 (Huh-7 cells; read-out: Cytotoxicity (Huh-7 cells) CC50, 6 days, XTT): 13000 nM | Inhibition of OC43 Virus-Induced CPE in Huh-7 Cells (HCoV-OC43 [3]; 0.01 μM, mean of duplicates): 1.1% | Inhibition of OC43 Virus-Induced CPE in Huh-7 Cells (HCoV-OC43 [3]; 0.04 μM, mean of duplicates): −1.2% | Inhibition of OC43 Virus-Induced CPE in Huh-7 Cells (HCoV-OC43 [3]; 0.12 μM, mean of duplicates): −0.1% | Inhibition of OC43 Virus-Induced CPE in Huh-7 Cells (HCoV-OC43 [3]; 0.4 μM, mean of duplicates): −2.4% | Inhibition of OC43 Virus-Induced CPE in Huh-7 Cells (HCoV-OC43 [3]; 1.1 μM, mean of duplicates): −1.0% | Inhibition of OC43 Virus-Induced CPE in Huh-7 Cells (HCoV-OC43 [3]; 3.3 μM, mean of duplicates): 17.9% | Inhibition of OC43 Virus-Induced CPE in Huh-7 Cells (HCoV-OC43 [3]; 10 μM, mean of duplicates): 21.4% | Inhibition of OC43 Virus-Induced CPE in Huh-7 Cells (HCoV-OC43 [3]; 30 μM, mean of duplicates): −7.8% | EC50 (HCoV-OC43 [3]; Huh-7 cells, 6 days, neutral red): > 30000 nM | Raw OD-Absorbance 490 nm (HCoV-OC43 [3]; 0.01 μM): 0.120 | Raw OD-Absorbance 490 nm (HCoV-OC43 [3]; 0.04 μM): 0.094 | Raw OD-Absorbance 490 nm (HCoV-OC43 [3]; 0.4 μM): 0.086 and 0.090 | Raw OD-Absorbance 490 nm (HCoV-OC43 [3]; 1.1 μM): 0.094 | Raw OD-Absorbance 490 nm (HCoV-OC43 [3]; 3.3 μM): 0.312 and 0.136 | Raw OD-Absorbance 490 nm (HCoV-OC43 [3]; 10 μM): 0.214 and 0.280 | Raw OD-Absorbance 490 nm (HCoV-OC43 [3]; 30 μM): 0.051 and 0.053
